Common to all, as to test: NCI tumour cell line growth inhibition, 48 h
For assay [1], the system named is DMS 273 small cell lung.
For assay [2], the system named is HOP-18 NSCLC.
Assay [3] relates to M19-MEL melanoma.
Assay [4] concerns RXF-631 renal.
For assay [5], the system named is XF 498 CNS.
In assay [6] the test system is MCF7 breast.
Assay [7] concerns MDA-N.
Assay [8] has as its system P388/ADR leukemia.
In assay [9] the test system is SN12K1 renal.
The test system of assay [10] is LXFL 529 NSCLC.
In assay [11] the test system is BT-549 breast.

“And” between values parts separate entries of the source, which are not always exact repeats. Identical values can stand only once.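 Where inhibition never reached the appropriate level, the endpoint shown equals the highest concentration tested. Otherwise, values were interpolated linearly from a five-concentration, 48-hour dose response in 96-well plates. Here, GI50 denotes the concentration required for 50% inhibition of growth. TGI: concentration producing complete growth inhibition.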 Some results are limits rather than exact numbers.

As to `O=C(O)CSc1n[nH]c(-c2ccc(O)cc2)n1`, the TGI in assay [1], in assay [2], in assay [3], in assay [4] and in assay [5] was > 100 µM in each case.
In the case of `N#Cc1cn(C2OC(CO)C(O)C2O)c2ncnc(N)c12` (configuration not stated), the TGI in assay [1] was 0.39 µM and 0.07 µM; in assay [3], 1.56 µM and 7.69 µM; in assay [9], 3.13 µM; in assay [5], 0.013 µM and 0.0663 µM. Also, the GI50 is 0.0557 µM in assay [2]; 0.0251 µM and 0.045 µM and < 0.0169 µM in assay [6]; 0.0281 µM in [7]; 0.0127 µM and 0.045 µM in [8]; 0.045 µM in assay [5].
Regarding `CC1OC(OCC2OC(Oc3c(-c4ccc(O)cc4)oc4cc(O)cc(O)c4c3=O)C(OC3OCC(O)(CO)C3O)C(O)C2O)C(O)C(O)C1O` (configuration not stated), the TGI in assay [1] is > 100 µM; in [2], > 100 µM; in assay [10], > 100 µM; in [3] it was 61.6 µM; in [4], > 100 µM.
As for `O=C1CC(O)C=C1Nc1ccc(Cl)cc1` (configuration not stated), the TGI in assay [1], in [2], in [10], in [3] and in assay [4] was > 100 µM throughout.
As to `O=C1C(=O)N(C(=O)c2ccc(Cl)c(Cl)c2)c2ccccc21`, the TGI in [1], in assay [2], in assay [10], in [3] and in [4] was > 100 µM throughout.
As for `O=C(O)c1c(-c2cccc3ccccc23)sc(-c2cccc3ccccc23)c1C(=O)O`, the TGI in assay [1], in assay [2], in [10], in assay [3] and in assay [5] was > 100 µM throughout.
Take `Cn1c2c(c3ccccc31)CCN(CCCCN1CCc3c(n(C)c4ccccc34)C1=O)C2`: the TGI in assay [1], in assay [2], in [10], in assay [3], in assay [4] and in assay [5] was > 100 µM in each case.
Consider `Cc1cc2c(c(C#N)c1C)NC(=O)CCC2=O`, for which the TGI in assay [1], in [10], in [3], in assay [4] and in assay [5] was > 100 µM in each case.
Regarding `O=C(c1ccccc1)C(c1ccccc1)C1(O)C(=O)Nc2c(Cl)cc(Cl)cc21` (configuration not stated), the TGI in assay [1] is 83.2 µM; in assay [2], 36.6 µM; in assay [10], 25.7 µM; in assay [4], 38 µM; in [5], > 100 µM.
Turning to `CCOC(=O)C(=O)Nc1nc2c(s1)C(=O)c1ccccc1C2=O`, the TGI in assay [1] was determined as 40.6 µM; in [10] it was 26.2 µM; in [3] it was 7.45 µM; in assay [4], 27.8 µM; in assay [5], 26.9 µM.
`C[C@@H]1C[C@@H](O)[C@]2(O)O[C@@H]3C[C@@]4(C=O)[C@@H](CC[C@@H]5[C@@H]4CC[C@]4(C)[C@@H](C6=CC(=O)OC6)CC[C@]54O)C[C@H]3O[C@@H]2O1`: the TGI is 0.179 µM in assay [11]; 0.0724 µM and 0.0123 µM in assay [1]; 0.0164 µM and 0.0576 µM in assay [10]; 0.104 µM and 0.0732 µM in assay [3]; 0.16 µM in assay [6]; 0.189 µM in [7]. In assay [5], the TGI is 0.0571 µM and 0.0493 µM. The GI50 in assay [2] was 0.005 µM; in assay [3], 0.0125 µM; in assay [5], 0.0206 µM.
On to `COc1cc(OC)c([C@@H]2OC(=O)C3C2C(=O)O[C@H]3c2cc(OC)c(OC)cc2OC)cc1OC` (some centres not stated), for which the TGI in [1], in assay [2], in assay [10], in [3] and in [5] was > 100 µM throughout.
For the compound `CCOC(=O)[C@@]1(C)C=C2O[C@@H]3OC4(CCCCC4)O[C@@H]3C2=C2C(O)=CC=C(O)[C@]21C(=O)OC`, the TGI in assay [1], in assay [2], in assay [10], in assay [3], in [4] and in [5] was > 68 µM in each case.
Consider `CCc1cccc(C(C)C)c1NC(=O)C(=O)C(Cc1nc2ccccc2[nH]c1=O)C(=O)OC` (configuration not stated), for which the TGI in [1], in assay [2], in assay [10], in [3] and in assay [5] was > 100 µM in each case.
As to `CC1=C(C)C(=O)c2c(cc3ccc4ccccc4n23)C1=O`, the TGI in [1], in assay [2], in [10], in assay [3] and in assay [4] was > 100 µM throughout.
In the case of `Cc1ccc(OCC(=O)N2N=C(c3ccccc3)CC2(O)c2ccccc2)cc1` (configuration not stated), the TGI in assay [1] is 40.2 µM; in assay [10], > 100 µM; in assay [3], > 100 µM; in [4], > 100 µM; in assay [5], > 100 µM.
Turning to `COc1ccc(C(=O)/C(Br)=C/C(=O)O)cc1`, the GI50 was 242 µM in [11], 7.41 µM in assay [6] and 47.4 µM in assay [7]. Also, the TGI is 96.4 µM and 406 µM in assay [11]; 26.3 µM in assay [1]; 139 µM in [2]; 106 µM in assay [3]; 44.5 µM and 59.9 µM in assay [6]; 209 µM and 153 µM in [7]. The TGI amounted to 108 µM in assay [8], 22.6 µM in assay [9] and 16 µM in assay [5].
`CC(=O)O/C=C(/C=C/OC(C)=O)C(C/C=C(\C)C#CC=C(C)C)OC(C)=O` (configuration not stated): the TGI in [1] is > 100 µM; in [2] it was > 100 µM; in assay [10], 37.1 µM; in [3] it was 41.7 µM; in assay [4] it was > 100 µM; in assay [5], > 100 µM.
On to `COc1cc([C@H]2c3cc4c(cc3O[C@@]3(O)COC(=O)[C@@H]23)OCO4)cc(OC)c1OC`, for which the TGI in assay [1], in assay [2], in [3], in [6], in assay [7] and in assay [4] was > 100 µM each time. For the same compound, the TGI in [5] was > 100 µM.
As for `CC1=C(C(=O)Nc2ccccc2C)C(c2ccccc2)C(C(=O)Nc2ccccc2C)=C(C)N1`, the TGI in assay [1] was > 100 µM; in assay [2] it was > 100 µM; in [10], > 100 µM; in assay [3], > 100 µM; in [5] it was 83.2 µM.
Turning to `COc1cc(CCc2ccc(OCCN(C)C)cc2)cc(OC)c1OC`, the TGI in assay [1] is > 100 µM; in [2], > 100 µM; in assay [10], > 100 µM; in assay [3] it was > 100 µM; in assay [4], > 100 µM; in assay [5], 93.7 µM.
Regarding `COC(=O)C1CC2(CC3=C1CCCC3)OCCO2` (configuration not stated), the TGI in assay [1], in assay [10], in assay [3], in [4] and in [5] was > 100 µM throughout.
Take `Nc1ccn(CCOC(=O)c2ccccc2)c(=O)n1`: the TGI in [1], in [2], in assay [10] and in assay [4] was > 100 µM throughout.
For `Nn1c(-c2ccccc2)nc2ccc(Br)cc2c1=O`, the TGI in assay [1], in assay [2], in [10], in [3], in [4] and in assay [5] was > 100 µM throughout.
